The source of these data is patent US5491220A, “Surface loop structural analogues of fibroblast growth factors” (Yeda Research and Development Co., Ltd., priority 1994, dated 1996).

Experiment [1] concerns FGFR2(IIIb) (FGF-7 or KGF receptor). The experiment is described as follows: Competition binding to soluble FGFR2(IIIb) (displacement of 125I-FGF-7). To be noted: 200 ng/ml heparin. Details: species or system murine. On the procedure: (§1) Binding of FGF proteins to different FGF receptors are determined in this example, by measuring the degree of competition for binding to different types of FGF-receptor proteins between a radioiodinated FGF protein and various unlabelled proteins, or by the direct binding of radioiodinated FGF's to various receptor proteins. Binding studies are confirmed by chemical cross-linking of the radioiodinated FGF to soluble receptors in the presence and absence of excess unlabelled FGF.
(§2) Soluble FGF receptor proteins are constructed by cloning of the extracellular region of murine FGF receptor 1 (FGFR-1; flg), FGF receptor 2 (FGFR-2; bek) or the KGF receptor (FGFR(IIIb); K-sam) into the alkaline phosphatase-tag expression vector, which encodes for a secreted form of placental alkaline phosphatase (AP). The FGF receptor alkaline phosphatase (FRAP) plasmids are cotransfected into NIH 3T3 cells by electroporation with a selectable neomycin resistance gene. Clonies are selected in G418 (600 μg/ml) and screened for secreted AP enzyme activity in the conditioned medium. Clones of each receptor which produced a high level of AP activity (2 to 4 A405 units/min/ml) are then used to produce conditioned medium for binding assays.
(§3) Components of the soluble receptor binding reaction mixture include FRAP-conditioned medium (0.24 OD units/min), 2 ng/ml^125 I-FGFs and 200 ng/ml heparin. The FGF:heparin:FRAP terniary complex is immunoprecipitated with 20 μl of a 1:1 slurry of anti-AP monoclonal antibodies coupled to protein A Sepharose®. All components are mixed at room temperature. The total volume is adjusted to 200 μl by addition of DMEM containing 0.1% bovine serum albumin. Binding is allowed to proceed for 1 to 2 hours at 24° C., after which time bound receptor complex or the ligand is recovered by centrifugation at 4° C. (10 s at 2,000×g). The pelleted material is washed twice with 500 μl of an ice cold buffer containing HEPES (20 mM), NaCl (150 mM), glycerol (10%) and Triton® X-100 (1%). ^125 I-FGF binding is quantitated by counting of the samples in a gamma counter (LKB). Alternatively, AP enzyme activity of the FRAP protein is determined by transferring the FRAP receptor bound to […] to a flat-bottom microtiter plate in a volume of 50 μl of PBS. The reaction is initiated by addition of substrate (50 μl of 2× solution of AP assay buffer containing 2M diethanoiamine, 1 mM MgCl2, 20 mM homoarginine and 12 mM p-nitrophenyl phosphate). The reaction is followed at room temperature at 405 nm in a kinetic microplate reader.
(In a radioligand displacement assay an active substance lowers the binding of a labelled ligand.)

The subject of another experiment is FGFR2(IIIb). The experiment is described as follows: Chemical cross-linking of 125I-FGF to soluble FGFR2(IIIb). Type of experiment: binding, murine. To be noted: with and without excess unlabelled FGF. As to the method: as §1, §2
(§4) Chemical cross-linking experiments are carried out at room temperature in a volume of 20 μl in siliconized 0.5-ml microcentrifuge tubes. The reaction mixtures contain FGF receptor immobilized to anti-AP monoclonal antibodies coupled to protein A Sepharose®, 200 ng/ml heparin, 2 ng/ml^125 I-bFGF, 20 mM phosphate buffer (pH 7.4), and 140 mM NaCl. After a 90 minute incubation, […] of a solution of disuccinimidyl suberate (Pierce) dissolved in dimethyl sulfoxide is added to give a final concentration of 0.15 mM, and the mixture incubated for an additional 30 minutes. The reaction is quenched by addition of […] of 200 mM ethanolamine-HCl (pH 8.0) for 30 min. The reaction mixtures are diluted 1:1 with 2× SDS-polyacrylamide gel electrophoresis loading buffer and electrophoresed on an SDS-12% polyacrylamide gel. Cross-linked FGF to the FGF receptor are detected by autoradiography on Kodak XAR film.

The test system of experiment [2] is FGF receptor on BHK cells. The experiment in a line: Competition for 125I-FGF-2 binding to baby hamster kidney (BHK) cells. As to conditions: 50 pM 125I-FGF-2; compared with FGF-2. As to the method: FGF-2LI and FGF-2LA are tested for their capacity to compete for the binding of ^125 I-FGF-2 (Amersham Corp.) to baby hamster kidney (BHK) cells, which express high numbers of FGF receptor. The assay employed is described by Moscatelli (J. Cell. Physiol. 131: 123-130 (1987)). Briefly stated, BHK cells plated on 24-well plates are incubated with 50 pM ^125 I-FGF-2 with serial dilutions of unlabelled FGF-2, FGF-2LI or FGF-2LA loop mutants at room temperature for 1 hour or at 4° C. for 2 hours. The cells are then incubated at 4° C. for 30 minutes, washed twice with phosphate-buffered saline and treated with 20 mM HEPES (N-2-hydroxyethyl-piperazine-N'-2-ethanesulfonic acid), pH 7.5, containing 2M NaCl to remove ^125 I-FGF-2 bound to low affinity heparin sulfate binding sites. Receptor bound ^125 I-FGF-2 is recovered by treatment of the cells with 0.5% Triton X-100 in 0.1M sodium phosphate, pH 8, and counted in a γ-counter. Assays are conducted in duplicate.

For the next experiment, the system named is FGFR1. The experiment in a line: Chemical cross-linking of 125I-FGF to soluble FGFR1. To be noted: with and without excess unlabelled FGF. It is filed as binding, murine. On the procedure:
as §1, §2, §4

For experiment [3], the system named is soluble FGF receptor 1 (FGFR-1; flg). The experiment in a line: Competition binding to soluble FGFR1 (displacement of 125I-FGF-2). Further details: species or system murine. To be noted: 200 ng/ml heparin. As to the method: as §1, §2, §3
The nature of experiment [4]: Affinity for immobilized heparin (NaCl elution from heparin column). It is filed as binding. As to the method:
Cells from 1 liter cultures are harvested by centrifugation, resuspended in 30 ml of 50 mM Tris-HCl, pH 7.5 containing 0.1 mM EDTA and 0.6M NaCl, and disrupted by treatment with lysozyme (10 μg/ml) for 20 min at 4° C. followed by sonication (6×30 sec pulses). The lysates are clarified by centrifugation (10,000×g; 20 min) and the supernatant solutions incubated with 5 ml of hydrated heparin Sepharose (Pharmacia/LKB) at 4° C. for 1 hour with constant rotation. The resin is isolated by filtration on 0.8 μm filter apparatus (Nalgene), washed extensively with 10 mM Tris-HCl pH 7.4 containing 0.6M NaCl and bound protein eluted with Tris buffer containing 3M NaCl (25 ml). The 3M NaCl eluent is diluted 6-fold with Tris buffer and loaded onto a TSK heparin 5PW column (0.21×15 cm; The Nest Group, MA) and the column developed using a linear NaCl gradient (0.6 to 2M) in 90 min at a flow rate of […].
NaCl elution from heparin-Sepharose® is about 0.7M NaCl, compared with 1.4M NaCl for the wild-type protein. The molarity of NaCl required to elute the LK mutant is similar to that required to elute FGF-7.

The subject of another experiment is neovascularization. The experiment is described as follows: In vivo angiogenesis, rabbit ear chamber model. On the procedure:
In an in vivo model of angiogenesis, FGF-2LI is evaluated using the rabbit ear chamber system modified and improved by Howden, G. F., and Silver, I. A., (Int. Endodontic J. 13: 3-16 (1980)), observing the growth factor-induced neovascularization, or its inhibition, by modified growth factors or other reagents.
Rabbits are sedated using 50-70 mg/kg ketamine and 10 mg/kg xylozine administered intramuscularly. The ears are shaved with an electric hair clipper and cleaned with water, followed by Betadine®. To minimize the risk of infection, the rabbits are given 20,000 units/kg benzathine penicillin intramuscularly prior to insertion of the ear chambers. The chamber is inserted into an approximately 0.75 cm area which is not crossed by any major vessels. During the course of the experiments, observations or any minor handling of ear chambers of the animals is done by sedating the animal using the intramuscular administration of a combination of Butorphanol® and acepromazine at levels of 1 mg/kg each. FGF-2 or FGF-2LI bound to heparin-Sepharose® beads in a controlled-release alginate capsule is contained in one of the ear chambers and the other is used as a control containing only the heparin-Sepharose® alginate capsule vehicle. Thus, the effect of the growth factors and the controlled-release capsule alone can be observed simultaneously in the same animal. […] The animals are kept for 4 to 6 weeks and neovascularization is observed visually and recorded photographically at weekly intervals.
The criteria for evaluation of the degree of neovascularization using this procedure is set out below.

Entries after “also recorded” stand apart in the source; their conditions may differ.

As for FGF-1: acidic fibroblast growth factor, the “Binding to soluble FGFR2(IIIb) (competition with 125I-FGF-7)” value (“Binding to soluble FGFR2(IIIb)” for short) in experiment [1] was “bind with the same affinity”. Further, in the experiment on FGFR2(IIIb), the “Cross-linking to FGFR2(IIIb)” value is “bind”. The “Capacity to compete with 125I-FGF-2 binding to FGF receptors on BHK cells” value in experiment [2] is “affinity equal to that of FGF-2”. Also, in the experiment on FGFR1, the “Cross-linking to FGFR1” value is reported as “bind”. Further, in experiment [3], the “Binding to soluble FGFR1 (competition with 125I-FGF-2)” value (shortened to “Binding to soluble FGFR1”) was “bind equally well”.

Consider “FGF-2: basic fibroblast growth factor, wild-type factor used as comparator (NNYNTYRSRKYTSWYVALKRT) [reference compound]”, for which, in experiment [4] (TSK-heparin column), the “NaCl concentration at elution from TSK-heparin column” value is “about 1.5 M”. The “NaCl elution from heparin-Sepharose” value in experiment [4] (heparin-Sepharose) amounted to 1.4 M. In addition, the “Binding to soluble FGFR2(IIIb)” value in experiment [1] is reported as “do not bind; also recorded: does not compete”. Further, the “Cross-linking to FGFR2(IIIb)” value in the experiment with FGFR2(IIIb) is recorded as “excluded from binding”. The “Angiogenesis at 400 ng/chamber” value in the experiment on neovascularization (400 ng/chamber) is given as “completely inhibited”. Moreover, the “Concentration range over which stimulatory activity is observed” value with neovascularization (rabbit ear chamber) was 10-100 ng/chamber. In the experiment on neovascularization (rabbit ear chamber, controlled-release alginate capsule), the “Potential to induce angiogenesis (neovascularization)” value is on record as “dose-dependent induction of new blood vessels”. In the experiment on neovascularization (rabbit ear chamber, versus control chambers), the “Vessel formation in the chamber” value was “stimulate large vessel formation”. The “Cross-linking to FGFR1” value with FGFR1 is “bind”. The “Binding to soluble FGFR1” value in experiment [3] is on record as “bind equally well”.

“FGF-7: fibroblast growth factor-7, also known as keratinocyte growth factor or KGF (NHYNTYASAKWTHNGGEMFVALNQK)”: the “Binding to soluble FGFR2(IIIb)” value in experiment [1] is “bind with the same affinity”. For the same substance, the “Cross-linking to FGFR2(IIIb)” value in the experiment with FGFR2(IIIb) is given as “bind”. In the experiment with FGFR1, the “Cross-linking to FGFR1” value is listed as “not detected”. Moreover, the “Binding to soluble FGFR1” value in experiment [3] is on record as “no binding”.

In the case of “hrIL-1β: human recombinant interleukin-1β (Biogen) [reference compound]”, the “Capacity to compete with 125I-FGF-2 binding to FGF receptors on BHK cells” value in experiment [2] was “no binding”.
